Test results reported in US20210371388A1, “Bicyclic Carboxamide with Exocyclic Urea Derivatives as Antivirals for the Treatment of HBV Infection” (Baruch S. Blumberg Institute, priority 2020, published 2021).

Each compound was assayed on HBV replication in AML12HBV10 cells (assay: Antiviral efficacy: HBV DNA in AML12HBV10 cell lysates by dot-blot hybridization). Conditions: Hepatitis B virus, AML12HBV10, 48 h, read-out: Antiviral activity (EC50), AML12HBV10 cells, 48 hours treatment, concentration that reduces the amount of HBV DNA by 50%.
Assay type: cell-based
Method: The antiviral efficacy of the compounds of the disclosure, as presented in Table 2, were determined in AML12HBV10 cells. AML12HBV10 is an immortalized murine hepatocyte (AML12)-derived stable cell line that supports robust HBV replication in a tetracycline inducible manner (Xu et al.). The cells were seeded into 96 well plates at a density of 2×10^4 cells per well and cultured in DMEM/F12 media with 10% fetal bovine serum in the absence of tetracycline to allow pgRNA transcription and HBV DNA replication. One day after seeding, cells were left untreated or treated with a serial dilution of testing compounds, ranging from 50 μM to 0.39 μM, for 48 hours. Cells were then lysed by adding into each well of 100 μl lysis buffer containing 10 mM Tris-HCl (pH 7.6), 1 mM EDTA, 100 mM NaCl and 1% NP-40 and incubated at 37° C. for 30 minutes. Half amount (50 μλ) of cell lysate from each well was combined with equal volume of denaturing solution containing 0.5N NaOH and 1.5M NaCl. After 5 minute incubation, 100 μl of neutralization solution (1M Tris-HCl, pH 7.4, 1.5M NaCl) was added into each well. The denatured cell lysates (totally 200 μl) were applied onto Nylon membrane using 96-well dot-blot manifold (Biorad). HBV DNA in the cell lysates were determined by dot-blot hybridization with alpha-^32P-UTP-labelled riboprobe specific for HBV minus strand DNA. The antiviral efficacy of a compound of the disclosure was expressed as the concentration that reduces the amount of HBV DNA by 50% (EC50).

Row | Compound | EC50
1 | O=C1CCN(C(=O)Nc2ccc(F)c(Cl)c2)c2ccccc21 [Entry 1] | 1.32 µM
2 | O=C1CCN(C(=O)Nc2ccc(F)c(Cl)c2)[C@H]2CCCC[C@H]12 [Entry 3] | 0.42 µM
3 | O=C(Nc1ccc(F)c(Cl)c1)N1CCc2ccccc21 [Entry 4] | 0.36 µM
4 | O=C(Nc1ccc(F)c(Cl)c1)N1CCOc2ccccc21 [Entry 5] | 0.52 µM
5 | O=C(Nc1ccc(F)c(Cl)c1)N1CCCCc2ccccc21 [Entry 6] | 12.3 µM
6 | O=C(Nc1ccc(F)c(Cl)c1)N1CCCc2ccccc21 [Entry 8] | 1.55 µM
7 | O=C(Nc1ccc(F)c(Cl)c1)N1CCNc2ccccc21 [Entry 9] | 0.5 µM
8 | O=C1CCCN(C(=O)Nc2ccc(F)c(Cl)c2)c2ccccc21 [Entry 10] | ≥ 10 µM
9 | Cc1ccc2c(c1)CCN2C(=O)Nc1ccc(F)c(Cl)c1 [Entry 11] | 5.26 µM
10 | O=C(Nc1ccc(F)c(Cl)c1)N1CCc2cc(F)c(F)cc21 [Entry 12] | 2.07 µM
11 | O=C1CCN(C(=O)Nc2cc(F)c(F)c(F)c2)[C@H]2CCCC[C@@H]12 [Entry 13] | 2.41 µM
12 | O=C1CCN(C(=O)Nc2cc(F)c(F)c(F)c2)[C@H]2CCCC[C@H]12 [Entry 14] | 3.46 µM
13 | CC1(O)CCN(C(=O)Nc2ccc(F)c(Cl)c2)C2CCCCC21 (centres unmarked) [Entry 15] | 6.4 µM
14 | O=C(Nc1cc(F)c(F)c(F)c1)N1CCC(O)C2CCCCC21 (centres unmarked) [Entry 19] | ≥ 10 µM
15 | O=C1CCN(C(=O)Nc2cc(F)c(F)c(Cl)c2)C2CCCCC12 (centres unmarked) [Entry 20] | 2.4 µM
16 | O=C(Nc1cc(F)c(F)c(F)c1)N1CCNc2ccccc21 [Entry 21] | 0.63 µM
17 | O=C1CN(C(=O)Nc2cc(F)c(F)c(F)c2)c2ccccc2N1 [Entry 22] | ≥ 10 µM
18 | O=C1CN(C(=O)Nc2ccc(F)c(Cl)c2)c2ccccc2N1 [Entry 23] | ≥ 10 µM
19 | O=C(Nc1ccc(F)c(Cl)c1)N1CCN(CCCCF)c2ccccc21 [Entry 24] | ≥ 10 µM
20 | O=C(Nc1cc(F)c(F)c(F)c1)N1CCN(CC(F)(F)F)c2ccccc21 [Entry 25] | ≥ 10 µM
21 | O=C(Nc1cc(F)c(F)c(F)c1)N1CCN(CCC(F)(F)F)c2ccccc21 [Entry 26] | ≥ 10 µM
22 | O=C(Nc1cc(F)c(F)c(F)c1)N1CCN(C(=O)c2ccccn2)c2ccccc21 [Entry 27] | ≥ 10 µM
23 | O=C(Nc1cc(F)c(F)c(F)c1)N1CCN(C(=O)c2ccc(C(F)(F)F)cc2)c2ccccc21 [Entry 28] | ≥ 10 µM
24 | CC(=O)N1CCN(C(=O)Nc2cc(F)c(F)c(F)c2)c2ccccc21 [Entry 29] | ≥ 10 µM
25 | CC(C)(C)C(=O)N1CCN(C(=O)Nc2cc(F)c(F)c(F)c2)c2ccccc21 [Entry 30] | ≥ 10 µM
26 | CC(C)C(=O)N1CCN(C(=O)Nc2cc(F)c(F)c(F)c2)c2ccccc21 [Entry 31] | 4.71 µM
27 | O=C(Nc1cc(F)c(F)c(F)c1)N1CCN(C(=O)c2ccccc2)c2ccccc21 [Entry 32] | ≥ 10 µM

Row | Compound | EC50
28 | O=C(Nc1cc(F)c(F)c(Cl)c1)N1CCNc2ccccc21 [Entry 33] | 0.93 µM
29 | O=C(Nc1cc(F)c(F)c(F)c1)N1CCN(S(=O)(=O)c2ccccc2)c2ccccc21 [Entry 34] | ≥ 10 µM
30 | CCCCOC(=O)N1CCN(C(=O)Nc2cc(F)c(F)c(F)c2)c2ccccc21 [Entry 35] | ≥ 10 µM
31 | CC(C)COC(=O)N1CCN(C(=O)Nc2cc(F)c(F)c(F)c2)c2ccccc21 [Entry 36] | ≥ 10 µM
32 | O=C(Nc1cc(F)c(F)c(F)c1)N1CCN(C(=O)OCc2ccccc2)c2ccccc21 [Entry 37] | ≥ 10 µM
33 | O=C(Nc1cc(F)c(F)c(F)c1)N1CCNC2CCCCC21 (centres unmarked) [Entry 38] | ≥ 10 µM
34 | O=C(Nc1ccc(F)c(Cl)c1)N1CCNC2CCCCC21 (centres unmarked) [Entry 40] | ≥ 10 µM
35 | O=C(Nc1ccc(F)c(Cl)c1)N1CCOC2CCCCC21 (centres unmarked) [Entry 41] | ≥ 10 µM
36 | O=C(Nc1ccc(F)c(Cl)c1)N1CCN(C(=O)Nc2ccc(F)c(Cl)c2)[C@H]2CCCC[C@@H]21 [Entry 42] | ≥ 10 µM
37 | CC(C)(C)OC(=O)N1CCN(C(=O)Nc2ccc(F)c(Cl)c2)[C@H]2CCCC[C@@H]21 [Entry 43] | ≥ 10 µM
38 | CC(C)(C)OC(=O)N1CCN(C(=O)Nc2ccc(F)c(Cl)c2)[C@@H]2CCCC[C@@H]21 [Entry 44] | ≥ 10 µM
39 | O=C(Nc1ccc(F)c(Cl)c1)N1CCCC2CCCCC21 (centres unmarked) [Entry 46] | ≥ 10 µM
40 | O=C(Nc1ccc(F)c(Cl)c1)N1CCN[C@H]2CCCC[C@H]21 [Entry 47] | ≥ 10 µM
41 | O=C(Nc1ccc(F)c(Cl)c1)N1CCN(C(=O)Nc2ccc(F)c(Cl)c2)c2ccccc21 [Entry 48] | 0.75 µM
42 | O=C(Nc1ccc(F)c(Cl)c1)N1CC2(CCCC2)Nc2ccccc21 [Entry 49] | ≥ 10 µM
43 | CC1(C)CN(C(=O)Nc2ccc(F)c(Cl)c2)c2ccccc2N1 [Entry 50] | ≥ 10 µM
44 | CC1CN(C(=O)Nc2ccc(F)c(Cl)c2)c2ccccc2N1 (centres unmarked) [Entry 51] | ≥ 10 µM
45 | O=C(Nc1ccc(F)c(Cl)c1)N1CC(c2ccccc2)Nc2ccccc21 (centres unmarked) [Entry 52] | ≥ 10 µM
46 | O=C(Nc1ccc(F)c(Cl)c1)N1CCS(=O)(=O)c2ccccc21 [Entry 53] | ≥ 10 µM
47 | CC(C)(C)NC(=O)N1CCN(C(=O)Nc2ccc(F)c(Cl)c2)c2ccccc21 [Entry 54] | ≥ 10 µM
48 | O=C1CN(C(=O)Nc2ccc(F)c(Cl)c2)C2CCCCC2N1 (centres unmarked) [Entry 56] | ≥ 10 µM
49 | O=C(Nc1cccc(Cl)c1)N1CCN(C(=O)Nc2ccc(F)c(Cl)c2)c2ccccc21 [Entry 57] | 0.65 µM
50 | O=C(Nc1cc(Cl)ccc1F)N1CCNc2ccccc21 [Entry 58] | 0.77 µM
51 | O=C(Nc1cc(F)c(F)c(F)c1)N1CCN(C(=O)Nc2cc(F)c(F)c(F)c2)c2ccccc21 [Entry 59] | 1.12 µM
52 | NC(=O)C1CN(C(=O)Nc2ccc(F)c(Cl)c2)c2ccccc2N1 (centres unmarked) [Entry 62] | ≥ 10 µM
53 | O=C(Nc1ccc(F)c(Cl)c1)N1c2ccccc2NCC1c1ccccc1 (centres unmarked) [Entry 63] | 0.78 µM
54 | CC1CNc2ccccc2N1C(=O)Nc1ccc(F)c(Cl)c1 (centres unmarked) [Entry 64] | 4.38 µM

Row | Compound | EC50
55 | CC1CN(C(=O)Nc2ccc(F)c(Cl)c2)c2ccccc2N1C(=O)Nc1ccc(F)c(Cl)c1 (centres unmarked) [Entry 65] | 1.3 µM
56 | CC(C)C1CN(C(=O)Nc2ccc(F)c(Cl)c2)c2ccccc2N1C(=O)NCc1ccc(F)c(F)c1 (centres unmarked) [Entry 66] | 1.66 µM
57 | O=C(Nc1ccc(F)c(Cl)c1)N1CC(CN2CCOCC2)N(C(=O)Nc2ccc(F)c(Cl)c2)c2ccccc21 (centres unmarked) [Entry 67] | 2.03 µM
58 | O=C(Nc1ccc(F)c(Cl)c1)N1CC(CN2CCC(O)CC2)N(C(=O)Nc2ccc(F)c(Cl)c2)c2ccccc21 (centres unmarked) [Entry 68] | ≥ 10 µM
59 | O=C(Nc1ccc(F)c(Cl)c1)N1CC(CN2CCC(F)(F)C2)N(C(=O)Nc2ccc(F)c(Cl)c2)c2ccccc21 (centres unmarked) [Entry 69] | 0.65 µM
60 | CN1CCN(CC2CN(C(=O)Nc3ccc(F)c(Cl)c3)c3ccccc3N2C(=O)Nc2ccc(F)c(Cl)c2)CC1 (centres unmarked) [Entry 70] | ≥ 10 µM
61 | O=C(Nc1ccc(F)c(Cl)c1)N1CC(CN2CCCC(F)(F)C2)N(C(=O)Nc2ccc(F)c(Cl)c2)c2ccccc21 (centres unmarked) [Entry 72] | 1.23 µM
62 | O=C1CC(c2ccccc2)N(C(=O)Nc2ccc(F)c(Cl)c2)c2ccccc21 (centres unmarked) [Entry 73] | 2.89 µM
63 | O=C(Nc1ccc(F)c(Cl)c1)N1CC(CN2CCC(F)(F)C2)Nc2ccccc21 (centres unmarked) [Entry 76] | 5.09 µM
64 | O=C(Nc1ccc(F)c(Cl)c1)N1c2ccccc2NCC1CN1CCC(F)(F)CC1 (centres unmarked) [Entry 77] | 0.28 µM
65 | O=C(Nc1ccc(F)c(Cl)c1)N1CC(CN2CCC(F)(F)CC2)Nc2ccccc21 (centres unmarked) [Entry 78] | 4.32 µM
66 | O=C(Nc1ccc(F)c(Cl)c1)N1c2ccccc2NCC1CN1CCC(F)(F)C1 (centres unmarked) [Entry 79] | 1.7 µM
67 | CC(C)C1CNc2ccccc2N1C(=O)Nc1ccc(F)c(Cl)c1 (centres unmarked) [Entry 81] | 3.5 µM
68 | O=C(Nc1ccc(F)c(Cl)c1)N1CCNc2cc(F)c(F)cc21 [Entry 82] | 0.61 µM
69 | O=C(Nc1ccc(F)c(Cl)c1)N1CCN(C(=O)Nc2ccc(F)c(Cl)c2)c2cc(F)c(F)cc21 [Entry 83] | 1.18 µM
70 | O=C1CC(c2ccc(F)cc2)N(C(=O)Nc2ccc(F)c(Cl)c2)c2ccccc21 (centres unmarked) [Entry 84] | 2.37 µM
71 | O=C1CCN(C(=O)Nc2ccc(F)c(Cl)c2)c2ccc(Br)cc21 [Entry 85] | ≥ 10 µM
72 | O=C1CCN(C(=O)Nc2ccc(F)c(Cl)c2)c2ccc(Cl)cc21 [Entry 86] | 4.83 µM
73 | O=C(Nc1ccc(F)c(Cl)c1)N1CCNc2cc(OCc3ccccc3)ccc21 [Entry 87] | 2.82 µM
74 | O=C(Nc1ccc(F)c(Cl)c1)N1C(c2ccccc2)CN[C@H]2CCCC[C@@H]21 (some centres unmarked) [Entry 88] | ≥ 10 µM
75 | O=C(Nc1ccc(F)c(Cl)c1)N1c2ccccc2NCC1CN1CCOCC1 (centres unmarked) [Entry 89] | 7.3 µM
76 | COC(=O)C1COCCN1CC1CNc2ccccc2N1C(=O)Nc1ccc(F)c(Cl)c1 (centres unmarked) [Entry 90] | 2.2 µM
77 | O=C(O)C1COCCN1CC1CNc2ccccc2N1C(=O)Nc1ccc(F)c(Cl)c1 (centres unmarked) [Entry 91] | ≥ 10 µM
78 | O=C(Nc1ccc(F)c(Cl)c1)N1CC(CN2CCOCC2)Nc2ccccc21 (centres unmarked) [Entry 96] | ≥ 10 µM
79 | COC(=O)[C@H]1CC(F)(F)CN1CC1CNc2ccccc2N1C(=O)Nc1ccc(F)c(Cl)c1 (some centres unmarked) [Entry 97] | ≥ 10 µM
80 | O=C(O)[C@H]1CC(F)(F)CN1CC1CNc2ccccc2N1C(=O)Nc1ccc(F)c(Cl)c1 (some centres unmarked) [Entry 98] | ≥ 10 µM
